Structures are written as SMILES.

The values that follow come from US20250188088A1, “COMPOUND AND USE THEREOF” (ONQUALITY PHARMACEUTICALS CHINA LTD., priority 2022, published 2025).

Assay [1] has as its system rash caused by monoclonal EGFR inhibitors. Description: Treatment of rash caused by monoclonal EGFR inhibitors, topical ointment, rat model. The conditions noted are these: SD rats. Format: in vivo. The method, then: An Experiment to Verify the Treatment of Rash Caused by Monoclonal EGFR Inhibitors with Topical Administration of Compounds of the Present Application on a Rat Animal Model After the SD rats were fed and adapted for one week (about 200 g), the rats were divided into 10 rats per group. The hair on the back of rats was gently removed with an electric razor one day before the experiment, and then an administration test was carried out. The EGFR monoclonal antibody solution diluted with normal saline was injected via tail vein twice a week, and the injection rate and time were shown in Table 4; the treatment experiment was started at the time point when rats developed a rash after continuous administration for 1-2 weeks. The experiments were divided into the administration group with the compound of the present application and the control group. During the treatment experiment, monoclonal antibody EGFR inhibitors were injected twice a week. the administration group applied the compound ointment of the present application on the back (about 3 cm*3 cm) of rats every day, and the control group applied blank matrix ointment on the back (about 3 cm*3 cm); after application, the rats were fixed with a fixed cyclinder for about 4 hours, and then the rats were released, with the residual drug at the application site wiped off with clean water, and put back into the cage. […] Table 4 lists the animal experiment combinations of monoclonal antibody EGFR inhibitors and the compound ointment of the present application, as well as the corresponding experiment results (wherein, the value in the control rate column=the number of rats whose rash is milder in the administration group than that in the control group/the total number of rats in the administration group×100%).

For assay [2], the system named is rash caused by small molecule EGFR inhibitors. Description: Treatment of rash caused by small molecule EGFR inhibitors, topical ointment, rat model. Format: in vivo, SD rats. How it is done: An Experiment to Verify the Treatment of Rash Caused by Small Molecule EGFR Inhibitors with Topical Administration of Compounds of the Present Application on a Rat Animal Model After the SD rats were fed and adapted for one week (about 200 g), the rats were divided into 10 rats per group. The hair on the back of rats was gently removed with an electric razor one day before the experiment, and then an intragastric administration test was carried out. EGFR inhibitors were dissolved in a sterile aqueous solution, and diluted with PBS buffer; the amount of each gavage was not more than 2 mL, and the dosage was shown in Table 3. […] The experiments were divided into the administration group with the compound of the present application and the control group. During the treatment experiment, EGFR inhibitors were intragastrically administered continuously every day. After the gavage, the administration group applied the compound ointment of the present application on the back (about 3 cm*3 cm) of rats, and the control group applied blank matrix ointment on the back (about 3 cm*3 cm); after application, the rats were fixed with a fixed cyclinder for about 4 hours, and then the rats were released, with the residual drug at the application site wiped off with clean water, and put back into the cage. The frequency of intragastric administration of EGFR inhibitors is shown in Table 3, but the compounds of the present application and blank ointment are applied only once a day. […] Table 3 lists the animal experiment combinations of various small molecule EGFR inhibitors and the compound ointment of the present application, as well as the corresponding experiment results (wherein, the value in the control rate column=the number of rats whose rash is milder in the administration group than that in the control group/the total number of rats in the administration group×100%).

In assay [3] the test system is skin contact delayed-type hypersensitivity. Nature of the assay: Skin contact delayed-type hypersensitivity (DNFB) response test, ear swelling, topical ointment. In kind it is in vivo. The conditions noted are these: topical to ears, DNFB DTH, Balb/c mice, compared to blank ointment. The text has this:
Therapeutic Effect of Topical Administration of Compounds of the Present Application in Skin Contact Delayed-Type Hypersensitivity Response Test in Mice Delayed-type hypersensitivity (DTH) response in mouse skin is considered to be an effective model for clinical contact dermatitis and other T cell-mediated cutaneous immune diseases, such as atopic dermatitis and psoriasis. The DTH in mice shares the common features with these cutaneous immune diseases, including immunoinfiltration with an increase of inflammatory cytokines and hyperproliferation of keratinocytes. Balb/c mice were sensitized by topical administration of the antigen 2,4-dinitrofluorobenzene (DNFB) to the shaved back of mice on Days 0 and 1. On Day 5, the thickness of the ears was measured using an engineering micrometer. The measurement result was recorded and used as a baseline. The animals were then challenged with a total of 20 μL of DNFB (10 μL for the internal pinna and 10 μL for the external pinna) topically dosed to both ears at a concentration of 0.2%. The ears were measured again 24-72 hours after challenge. The compound ointment of the present application was applied topically to the ears of the animals throughout the allergic and challenge periods (Days −1˜7) or before or throughout the challenge period (generally Days 4˜7). The therapeutic effect was expressed by a reduction in ear swelling compared to that of the blank ointment. The compound causing a reduction of 20% or more was considered effective. Table 5 lists the skin contact delayed-type hypersensitivity experiment results in mice treated with the compound of the present application.

The mark [4] stands for this setting: EAI045 80 mg/kg once a day, 8 dosing modelling days, ointment 5.0 wt% once a day.
Where [5] appears, read: Osimertinib 60 mg/kg twice a day, 7 dosing modelling days, ointment 10.0 wt% once a day.
[6] abbreviates: Afatinib 40 mg/kg once a day, 6 dosing modelling days, ointment 5.0 wt% once a day.
[7] abbreviates: Osimertinib 60 mg/kg twice a day, 7 dosing modelling days, ointment 1.0 wt% once a day.

Consider `C=CC(=O)N1C[C@@H](Nc2ncnc3c2ccn3C(=O)N(C)CCOC(=O)C2CC2)CC[C@H]1C` [Compound A33], for which the “Control Rate” value worked out at 20% in assay [1] (Cetuximab 100 mg/kg twice a week via tail vein, ointment 0.1 wt%, 10 days of drug application); 50% in assay [1] (Cetuximab 100 mg/kg twice a week via tail vein, ointment 1.0 wt%, 10 days of drug application); 80% in assay [1] (Cetuximab 100 mg/kg twice a week via tail vein, ointment 5.0 wt%, 10 days of drug application); 100% in assay [1] (Cetuximab 100 mg/kg twice a week via tail vein, ointment 10.0 wt%, 10 days of drug application); 30% in assay [1] (Panitumumab 6 mg/kg twice a week via tail vein, ointment 0.1 wt%, 8 days of drug application); 70% in assay [1] (Panitumumab 6 mg/kg twice a week via tail vein, ointment 1.0 wt%, 8 days of drug application). Also, the “Control Rate” value was found to be 70% in assay [1] (Panitumumab 6 mg/kg twice a week via tail vein, ointment 5.0 wt%, 8 days of drug application); 100% in assay [1] (Panitumumab 6 mg/kg twice a week via tail vein, ointment 10.0 wt%, 8 days of drug application); 30% in assay [2] (EAI045 80 mg/kg once a day, 8 dosing modelling days, ointment 1.0 wt% once a day); 60% in assay [2] (setting [4]); 30% in assay [2] (Osimertinib 60 mg/kg twice a day, 7 dosing modelling days, ointment 3.0 wt% once a day); 70% in assay [2] (setting [5]). Further, the “Reduction Rate of Ear Swelling” value in assay [3] (ointment 1.0 wt%) was determined as 22%; in assay [3] (ointment 5.0 wt%) it was 32%.

With `CN(CCOC(=O)C1CCCCC1)C(=O)n1ccc2c(-c3cnn(C4(CC#N)CN(C5CCN(C(=O)c6ccnc(C(F)(F)F)c6F)CC5)C4)c3)ncnc21` [Compound A36], the “Control Rate” value in assay [2] (Afatinib 40 mg/kg once a day, 6 dosing modelling days, ointment 0.5 wt% once a day) came to 20%; in assay [2] (setting [6]), 60%; in assay [2] (BPI-7711 60 mg/kg once a day, 6 dosing modelling days, ointment 5.0 wt% once a day) it was 30%; in assay [2] (EAI045 80 mg/kg once a day, 8 dosing modelling days, ointment 0.5 wt% once a day) it was 20%; in assay [2] (setting [4]), 40%; in assay [2] (Larotinib 20 mg/kg once a day, 6 dosing modelling days, ointment 5.0 wt% once a day), 60%. Further, the “Control Rate” value in assay [2] (setting [7]) was found to be 30%; in assay [2] (setting [5]) it was 50%. The “Reduction Rate of Ear Swelling” value was found to be 29% in assay [3] (ointment 1.0 wt%) and 34% in assay [3] (ointment 5.0 wt%).

For the compound `C[C@@H]1CN(C(=O)CC#N)[C@@]12CCN(c1ncnc3c1ccn3C(=O)N(C)CCOC(=O)c1ccn[nH]1)C2` [Compound A31], the “Control Rate” value in assay [2] (Afatinib 40 mg/kg once a day, 6 dosing modelling days, ointment 0.1 wt% once a day) is 10%; in assay [2] (Afatinib 40 mg/kg once a day, 6 dosing modelling days, ointment 1.0 wt% once a day), 60%; in assay [2] (Afatinib 40 mg/kg once a day, 6 dosing modelling days, ointment 3.0 wt% once a day), 70%; in assay [2] (setting [6]) it was 90%; in assay [2] (Afatinib 40 mg/kg once a day, 6 dosing modelling days, ointment 10.0 wt% once a day), 90%; in assay [2] (EAI045 80 mg/kg once a day, 8 dosing modelling days, ointment 0.1 wt% once a day) it was 20%. Besides, the “Control Rate” value came out at 70% in assay [2] (setting [4]); 90% in assay [2] (EAI045 80 mg/kg once a day, 8 dosing modelling days, ointment 10.0 wt% once a day); 20% in assay [2] (Gefitinib 80 mg/kg twice a day, 10 dosing modelling days, ointment 0.3 wt% once a day); 40% in assay [2] (Gefitinib 80 mg/kg twice a day, 10 dosing modelling days, ointment 3.0 wt% once a day); 90% in assay [2] (Gefitinib 80 mg/kg twice a day, 10 dosing modelling days, ointment 10.0 wt% once a day); 40% in assay [2] (Osimertinib 60 mg/kg twice a day, 7 dosing modelling days, ointment 0.5 wt% once a day). Moreover, the “Control Rate” value in assay [2] (setting [7]) is 60%; in assay [2] (Osimertinib 60 mg/kg twice a day, 7 dosing modelling days, ointment 5.0 wt% once a day), 70%. Also, the “Reduction Rate of Ear Swelling” value in assay [3] (ointment 1.0 wt%) worked out at 16%; in assay [3] (ointment 5.0 wt%), 28%.
